Test results published in paper PMC12687449, “Membrane disruption attenuates agonist potency in prostanoid receptors” (Biochemical Journal, 2025).
No end group written: not given here.

How the values were obtained:
[1] = target: EP4 receptor conformation sensor (Homo sapiens, UniProt P35408); experiment: FRET-based EP4 receptor conformation sensor stably expressed in HEK293 cells (intact, saponin-permeabilized, membrane fragments); format: cell-based; details: for Schild plot slope value of fitted linear regression / pKB (Schild plot, abscissa intercept): versus PGE2; for response of about 10 times EC50 normalized to saturating PGE2 concentration: 830 nM 11-deoxy PGE2, pipetting protocol
Sequence of EP4 receptor conformation sensor (P35408 1-332 limits assumed): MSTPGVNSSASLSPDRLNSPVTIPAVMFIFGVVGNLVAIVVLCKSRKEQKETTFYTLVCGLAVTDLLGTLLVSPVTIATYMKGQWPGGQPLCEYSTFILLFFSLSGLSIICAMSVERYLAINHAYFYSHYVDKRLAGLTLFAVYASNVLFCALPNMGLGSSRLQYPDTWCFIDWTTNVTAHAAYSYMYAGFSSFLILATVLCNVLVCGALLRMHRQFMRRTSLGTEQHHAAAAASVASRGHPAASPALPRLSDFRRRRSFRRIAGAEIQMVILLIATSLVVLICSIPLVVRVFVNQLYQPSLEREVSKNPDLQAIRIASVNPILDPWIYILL
Method: (§1) The cells were washed once with external buffer and subsequently incubated 2 minutes for single-cell FRET measurements or 10 minutes for BRET measurements in 0.05% saponin (AppliChem, Darmstadt, Germany) dissolved in internal buffer. Afterward, the cells were washed five times for single-cell FRET measurements or three times for BRET measurements with internal buffer.
HEK293 cells stably expressing the EP4 receptor, IP receptor, or DP2 receptor conformation sensor were seeded on 15 cm Ø dishes and grown until optical confluence. The cells were washed once with Dulbecco’s PBS (Capricorn Scientific GmbH), without Ca & Mg and Phenol Red (phosphate-buffered saline, PBS). After adding 5 ml PBS to the cells, the dish was treated with liquid nitrogen until the solution was visibly frozen. These dishes were stored at −80°C until the measurements were carried out. On the day of the measurement, the dishes were removed from the freezer and stored at room temperature until the buffer solution had thawed. The material was collected with a cell scraper and centrifuged (5000 rpm/5 min). The supernatant was discarded, the pellet containing the membrane fragments was resuspended with external buffer containing 0.1% BSA and seeded on microplates. […]

ETB receptor = target: T1, ETB receptor (Homo sapiens, UniProt P24530); experiment: BRET-based G protein activation, wildtype ETB receptor + Gαq biosensor in HEK293T cells; format: cell-based
T1 construct: expressed in transfected cells; host or cells: HEK293T (transient)
T1 sequence (P24530 27-442): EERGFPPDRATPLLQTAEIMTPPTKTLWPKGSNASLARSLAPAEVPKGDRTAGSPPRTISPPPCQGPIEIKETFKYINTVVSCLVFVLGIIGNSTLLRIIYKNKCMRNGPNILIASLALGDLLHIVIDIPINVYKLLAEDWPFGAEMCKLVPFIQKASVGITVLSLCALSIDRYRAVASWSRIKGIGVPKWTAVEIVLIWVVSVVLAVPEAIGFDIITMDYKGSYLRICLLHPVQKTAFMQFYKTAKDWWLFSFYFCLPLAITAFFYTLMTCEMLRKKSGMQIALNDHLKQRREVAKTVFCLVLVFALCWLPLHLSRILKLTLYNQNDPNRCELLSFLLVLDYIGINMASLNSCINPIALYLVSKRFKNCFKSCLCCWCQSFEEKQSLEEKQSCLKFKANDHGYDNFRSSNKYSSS
Method: Two days before BRET measurements were performed, HEK293T cells were transiently transfected with 3 µg of cDNAs containing TP receptor, ETB receptor, DP2 receptor, or S1P3 receptor and 3 µg of cDNAs containing Gβ3-T2A-cpVenus-Gγ9-IRES-Gαq-NLuc or Gβ3-T2A-cpVenus-Gγ9-IRES-Gαo1-NLuc using linear 25 kDa PEI reagent (polyethylenimine, PolyScience Inc., Hirschberg an der Bergstraße, Germany). The ratio between DNA and PEI was 1:3, and 50 µl serum-free DMEM was added per 1 µg DNA. The same amount of serum-free DMEM was also added separately to the PEI solution. DNA-DMEM and PEI-DMEM mixtures were incubated for 5 minutes, followed by incubation of the final mixture for another 10 minutes. […]
Two days before the actual measurement, HEK293T cells were transiently transfected and seeded on microplates. […] The measurements were performed using a Spark 20M plate reader (Tecan) at 37°C. Initially, the cells were measured for the baseline emission ratio. After the baseline measurement, 20 µl of external or internal buffer containing differing concentrations of either U-46619, 4-Ala ET-1, PGD,2 or S1P or external or internal buffer alone were added to the cells and measured. […] The cells were measured from the top and the donor luminescence (NLuc) was recorded at 415 to 470 nm and the acceptor luminescence (cpVenus) at 520 to 590 nm. Data were recorded using SparkControl^TM software. […]

[2] = target: T2, α2A-AR conformation sensor CAM (Mus musculus, UniProt Q01338); experiment: FRET-based α2A-AR CAM conformation sensor, single-cell measurements in HEK293 cells; design: species or system murine
T2 sequence (Q01338 1-465): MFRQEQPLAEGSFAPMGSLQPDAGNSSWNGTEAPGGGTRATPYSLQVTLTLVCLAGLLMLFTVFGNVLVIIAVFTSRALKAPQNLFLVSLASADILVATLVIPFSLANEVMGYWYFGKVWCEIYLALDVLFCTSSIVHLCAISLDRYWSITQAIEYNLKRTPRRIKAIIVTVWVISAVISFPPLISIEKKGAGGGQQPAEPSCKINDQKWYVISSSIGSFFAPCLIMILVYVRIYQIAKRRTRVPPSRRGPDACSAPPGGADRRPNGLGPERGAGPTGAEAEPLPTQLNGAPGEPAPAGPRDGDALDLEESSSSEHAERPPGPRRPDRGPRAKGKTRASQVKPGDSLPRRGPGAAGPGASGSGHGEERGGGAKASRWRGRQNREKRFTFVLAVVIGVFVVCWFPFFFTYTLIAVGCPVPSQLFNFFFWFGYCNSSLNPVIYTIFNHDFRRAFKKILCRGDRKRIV
Method: as §1
(§2) The coverslips loaded with stably transfected HEK293 cells containing either the FFA3 receptor, α2A-AR CAM, or ETB receptor conformation sensors were clamped in an Attofluor^TM cell chamber and were washed once with external buffer. Afterward, they were side by side either permeabilized or directly measured at room temperature by the use of an inverted microscope (Elipse Ti2, Nikon, Düsseldorf, Germany), equipped with a 100× oil immersion objective (Plan Apo λ 100 x/1.45 oil ∞/0.17 WD 0.13, Nikon, Düsseldorf, Germany) and dual excitation and dual emission imaging capabilities. […] The fluorescence emission of mT2 and the respective YFP variant was simultaneously collected by a second beamsplitter (488, Chroma, Bellows Falls, Vermont, U.S.A.) and two emission filters (mT2: 474/27, Chroma; YFP: 544/23, Chroma). […] For all single-cell FRET experiments, cells were prospectively selected based on a continuous plasma-membrane fluorescence rim and appropriate fluorescence distribution to ensure a PM-dominant receptor signal. […]

[3] = target: T3, FFA3 receptor conformation sensor (Homo sapiens, UniProt O14843); experiment: FRET-based FFA3 receptor conformation sensor, single-cell measurements in HEK293 cells
T3 construct: mT2 insertion and truncation after G314; expressed in transfected cells
T3 sequence (O14843 1-314 limits assumed): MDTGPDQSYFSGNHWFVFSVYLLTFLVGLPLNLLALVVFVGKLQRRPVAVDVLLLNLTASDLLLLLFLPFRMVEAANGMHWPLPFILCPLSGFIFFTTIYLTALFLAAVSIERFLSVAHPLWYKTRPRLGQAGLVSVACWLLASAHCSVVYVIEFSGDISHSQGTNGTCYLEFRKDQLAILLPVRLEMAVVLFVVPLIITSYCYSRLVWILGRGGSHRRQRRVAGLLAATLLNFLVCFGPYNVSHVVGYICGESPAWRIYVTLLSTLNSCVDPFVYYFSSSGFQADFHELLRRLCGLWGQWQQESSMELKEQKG
Method: as §1, §2

## CCCCc1nn(-c2ccccc2C(F)(F)F)c(=O)n1Cc1ccc(-c2ccccc2S(=O)(=O)NC(=O)c2sccc2C)cc1 [L-161,982]
[1]; intact cells
  Schild plot slope value of fitted linear regression: 1.16
  pKB (Schild plot, abscissa intercept): 7.7
[1]; membrane fragments
  Schild plot slope value of fitted linear regression: 0.69
  pKB (Schild plot, abscissa intercept): 6.6

## ASASSLMDKEAVYFAHLDIIW-OH [4-Ala ET-1]
ETB receptor; intact HEK293T cells
  EC50: 8.91 nM
ETB receptor; saponin-permeabilized cells with 1 µM GTP
  EC50: 0.617 nM

## CCCCC[C@H](O)/C=C/[C@H]1CCC(=O)[C@@H]1C/C=C\CCCC(=O)O [11-deoxy PGE2]
[1]; intact HEK293 cells, multiple-cell FRET on plate reader
  pEC50: 7.08
[1]; intact cells
  response of about 10 times EC50 normalized to saturating PGE2 concentration: 91% ± 3
[1]; saponin-permeabilized cells
  response of about 10 times EC50 normalized to saturating PGE2 concentration: 50% ± 3

## NC[C@H](O)c1ccc(O)c(O)c1 [norepinephrine]
[2]; intact cells
  pEC50: 6.10
[2]; saponin-permeabilized cells
  pEC50: 5.63

## CCC(=O)O [propionate, propionic acid]
[3]; intact cells
  pEC50: 3.92
[3]; saponin-permeabilized cells
  pEC50: 3.84
